One assay has as its system BV-2 cells. The experiment in a line: CTG cell proliferation assay, LPS/IFN-γ-activated BV-2 cells. It is filed as cell-based, Mouse. As for the experimental part: (§1) Step 1: BV-2 cells in the exponential growth phase were collected, and viable cells were counted using a Vi-Cell XR cell counter. The cell suspension was adjusted to an appropriate concentration with the culture medium. 160 μL of cell suspension was added to each well of a 96-well cell culture plate, resulting in a final cell concentration of 12,000 cells per well. The culture plate was incubated for 24 hours in a 37° C., 5% CO2 incubator.
(§2) Step 2: A 10 mM DMSO compound stock solution was diluted at a ratio of 1:4 using DMSO to prepare a series of 1000× test compound solutions. These 1000× test compound solutions were further diluted at a ratio of 1:100 using cell culture medium to prepare a series of 10× test compound solutions. Finally, the 96-well plate that had been plated with cells the day before was taken out. According to the experimental well plate loading design, 20 μL of the corresponding 10× solution was added to each well, with three duplicate wells for each drug concentration. The final concentrations of the test compounds used in the experiment (i.e., 1× solutions) have a range of 10, 2.5, 0.625, 0.156, 0.0391, 0.0098, and 0.0024 μM. The final DMSO concentration in each well was 0.1%.
(§3) After the compound was added, the 96-well plate was incubated for half an hour in the 37° C., 5% CO2 incubator.
(§4) After the pre-incubation was completed, 20 μL of culture medium containing 100 ng/mL LPS and 100 ng/mL IFN-γ (final concentrations of 10 ng/mL LPS and 10 ng/mL IFN-7) was added to each well to induce the activation of BV-2 cells. The culture plate was then incubated for 24 hours in the 37° C., 5% CO2 incubator.
(§5) Step 3: After 24 hours of treatment with the compound, the culture plate was centrifuged at 1200 rpm for 5 minutes. The supernatant was pipetted into another plate, which was sealed with tinfoil and stored at −20° C. for future ELISA and Griess reagent system assays. The cell culture plate from which the supernatant had been removed was immediately used for cell proliferation assays using the CellTiter-Glo (CTG) method.
Step 4: In the cell culture plate from which the supernatant had been removed, 100 μL of PBS was added to each well. According to the instructions of the CellTiter-Glo (CTG) kit, 50 μL of pre-melted and room-temperature balanced CTG solution was added to each well. The plate was then mixed for 2 minutes using a microplate shaker. After letting it stand at room temperature for 10 minutes, the fluorescence signal value was measured using an Envision 2104 plate reader.
Step 1: Using the CTG fluorescence signal values, the percentage of surviving cells (surviving cells %) at each test concentration relative to the blank (DMSO) group was calculated. The formula was: surviving cells %=fluorescence value of the test concentration group/fluorescence value of the blank group.
Step 2: the percentage of surviving cells was plotted against the logarithm of the compound concentration. Nonlinear regression was used to fit the curve, and the formula “log(inhibitor) vs. response—Variable slope” in the software GraphPad Prism 5 was employed to calculate the IC50 value.
Step 3: The formula for calculating the inhibition rate was: inh. (%)={fluorescence value of the blank group−fluorescence value of the test concentration group}/fluorescence value of the blank (DMSO) group.

The test system of assay [1] is NO secretion by BV-2 cell line. The assay can be described thus: NO secretion by LPS/IFN-γ-activated BV-2 cells (Griess Reagent System). It is filed as cell-based, Mouse. Conditions: for IC50: Mus musculus, BV-2, 24 h co-incubation. Here is the method: as §1, §2, §3, §4, §5
(§6) Step 5 (NO and CCL5 detection): The CCL5 levels in the supernatant were detected using an ELISA kit (Mouse CCL5/RANTES DuoSet ELISA; R&D; DY478-05), following the instructions provided with the kit. The nitric oxide (NO) levels in the supernatant were detected using the Griess Reagent System (Promega; G2930), following the instructions provided with the kit.
(§7) Step 1: Firstly, the optical density values obtained from ELISA and Griess tests were used to plot a standard curve and calculate the absolute concentrations of each sample. The absolute concentration was then calibrated using the CTG fluorescence value corresponding to each sample to obtain the calibrated concentration. The formula for calculating the calibrated concentration was: calibrated concentration=absolute concentration/CTG fluorescence value of the same sample.
Step 2: Based on the calibrated concentration of each sample, the relative percentage of CCL5 or NO secretion (i.e., CCL5 production (%) or NO production (%)) at each test concentration relative to the blank (DMSO) group was calculated. The formula for calculating the relative percentage was: relative percentage %=(calibrated concentration of the test concentration group)/(calibrated concentration of the blank group).
Step 3: Finally, the relative percentage of CCL5 secretion or the relative percentage of NO secretion was plotted against the logarithm of the compound concentration. […]

Assay [2] concerns mouse CCL5 secretion by BV-2 cell line. The experiment in a line: CCL5 secretion by LPS/IFN-γ-activated BV-2 cells (ELISA). The assay is classed as cell-based. As for the experimental part:
as §1, §2, §3
After the pre-incubation was completed, 20 μL of culture medium containing 100 ng/mL LPS and 100 ng/mL IFN-γ (final concentrations of 10 ng/mL LPS and 10 ng/mL IFN-7) was added to each well to induce the activation of BV-2 cells. The culture plate was then incubated for 24 hours in the 37° C., 5% CO2 incubator. […]
as §6, §7
Step 2: Based on the calibrated concentration of each sample, the relative percentage of CCL5 or NO secretion (i.e., CCL5 production (%) or NO production (%)) at each test concentration relative to the blank (DMSO) group was calculated. […]
For orientation: ELISA stands for enzyme-linked immunosorbent assay.

[3] abbreviates: 24 h co-incubation, up to 10 μM.

Where two headings read alike, the source gives them in different places.

In general, IC50 refers to the point on the concentration scale where inhibition reaches its midpoint. For the compound `CCc1cc(/C(C)=N/OCc2ccc(C3CCCCC3)c(C(F)(F)F)c2)ccc1CN1CC(C(=O)O)C1` [Siponimod, reference compound], the “inhibitory effect on cell proliferation” value in the assay with BV-2 cells (24 h co-incubation with BV-2, highest test concentration 10 μM) is on record as “no significant inhibitory effect on cell proliferation”. Besides, the inhibition at up to 10 µM with BV-2 cells (Mus musculus, BV-2, 24 h co-incubation, LPS/IFN-γ, highest concentration 10 μM, read-out: Maximum inhibition rate on BV-2 cell proliferation) stood at 4.44%. Moreover, the “Maximum inhibition rate on NO secretion by BV-2” value in assay [1] (setting [3]) is 7.71%. Moreover, the 50% inhibitory concentration (IC50) in assay [1] (read-out: IC50 on NO secretion by BV-2) is above 10 µM; in assay [1] (read-out: IC50 on NO secretion by BV-2 (text of b102)), above 10 µM; in assay [2] (Mus musculus, BV-2, 24 h co-incubation), above 10 µM. In addition, in assay [2] (setting [3]), the “Maximum inhibition rate on CCL5 secretion by BV-2” value is given as 35.16%.

Source of the values: patent US20240238299A1, “USE OF PYRROLOPYRIMIDINE COMPOUND” (GUANGZHOU JOYO PHARMATECH CO., LTD, priority 2021, published 2024).
